These results are taken from patent US20260274814A1, “THIENYL COMPOUNDS FOR THE TREATMENT OF A CENTRAL NERVOUS SYSTEM DISEASE OR DISORDER” (Coreterra Therapeutics, Inc., priority 2023, published 2026).

The assay relates to mice. Description: Neuropharmacological Assay (SmartCube): automated behavioral signature of compound-treated mice compared with a database of reference drug classes. It counts as in vivo. The settings on record: for minimal effective dose: Mus musculus, ip, dose having 45% or more total activity in SmartCube, i.p., if only one dose was tested, that dose is shown, read-out: MED (minimal effective dose); for AD / AG / AN / AP / AX / CE / HL / MS / PS / SH / UK: probability that activity matches this class of agents, 3.0 mg/kg i.p., 15 min before test. The method in brief:
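Probabilities of matching each neuropharmacological class (e.g. anxiolytic, antidepressant) come from algorithmic analysis of digitally recorded behaviour, reported for 3.0 mg/kg. Compounds were given intraperitoneally in a Pharmasolve/PEG/propylene glycol vehicle 15 min pre-test. Minimal effective dose is the lowest dose reaching 45% or more total activity.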

The structures appear in SMILES notation. Where a name gives a salt, the structure may show the parent alone.

Consider `CNC1CCc2sc(F)cc2C1` (stereo not drawn) [Compound 82, 2-fluoro-N-methyl-4,5,6,7-tetrahydrobenzothiophen-5-amine hydrochloride], for which the minimal effective dose came out at 3 mg/kg, the AD entry is “++ (≥24%)”, the AG entry was “ND (^ <4%)” and the AN result is “ND (^ <4%)”. The AP result is given as “+ (≥4%)”, the AX entry is “ND (^ <4%)”, the CE result is “ND (^ <4%)” and the HL entry was “ND (^ <4%)”. In addition, the MS result was “ND (^ <4%)”, the PS entry was “ND (^ <4%)”, the SH entry was “ND (^ <4%)” and the UK result is reported as “++ (≥24%)”.
`CNC1COc2csc(Cl)c2C1` (stereo not drawn) [Compound 87, 5-chloro-N-methyl-3,4-dihydro-2H-thieno[3,4-b]pyran-3-amine hydrochloride]: the minimal effective dose is 3 mg/kg, the AD entry is recorded as “ND (^ <4%)”, the AG entry was “ND (^ <4%)” and the AN entry was “ND (^ <4%)”. The AP entry is “+++ (≥49%)”, the AX entry is “ND (^ <4%)”, the CE result is on record as “ND (^ <4%)” and the HL entry is on record as “ND (^ <4%)”. Further, the MS result is “ND (^ <4%)”, the PS entry is reported as “ND (^ <4%)”, the SH result was “ND (^ <4%)” and the UK result is “ND (^ <4%)”.
With `CNC1COc2csc(C)c2C1` (stereo not drawn) [Compound 88, N, 5-dimethyl-3,4-dihydro-2H-thieno[3,4-b]pyran-3-amine hydrochloride], the minimal effective dose came to 3 mg/kg, the AD entry is “ND (^ <4%)”, the AG entry is “ND (^ <4%)” and the AN entry is “ND (^ <4%)”. Further, the AP entry is listed as “++++ (≥74%)”, the AX result is reported as “ND (^ <4%)”, the CE result is given as “ND (^ <4%)” and the HL result is “ND (^ <4%)”. In addition, the MS result is “ND (^ <4%)”, the PS entry was “ND (^ <4%)”, the SH entry is “ND (^ <4%)” and the UK result was “ND (^ <4%)”.
Regarding `NC1CCc2csc(Cl)c2C1` (stereo not drawn) [Compound 89, 3-chloro-4,5,6,7-tetrahydro-2-benzothiophen-5-amine hydrochloride], the minimal effective dose was found to be 3 mg/kg, the AD result is on record as “ND (^ <4%)”, the AG result was “ND (^ <4%)” and the AN result is recorded as “ND (^ <4%)”. Besides, the AP entry is recorded as “ND (^ <4%)”, the AX result was “+ (≥4%)”, the CE entry was “ND (^ <4%)” and the HL entry is reported as “ND (^ <4%)”. Moreover, the MS entry is “++ (≥24%)”, the PS entry is recorded as “ND (^ <4%)”, the SH entry was “ND (^ <4%)” and the UK entry is listed as “ND (^ <4%)”.
Regarding `CNC1CCc2scc(Cl)c2C1` (stereo not drawn) [Compound 90, 3-chloro-N-methyl-4,5,6,7-tetrahydrobenzothiophen-5-amine hydrochloride], the minimal effective dose worked out at 3 mg/kg, the AD entry is reported as “ND (^ <4%)”, the AG entry is recorded as “ND (^ <4%)” and the AN entry is given as “ND (^ <4%)”. For the same molecule, the AP entry is “+++ (≥49%)”, the AX result is listed as “ND (^ <4%)”, the CE entry is given as “ND (^ <4%)” and the HL result is “ND (^ <4%)”. In addition, the MS result is “ND (^ <4%)”, the PS result is on record as “ND (^ <4%)”, the SH result is “ND (^ <4%)” and the UK entry is given as “ND (^ <4%)”.
Regarding `CNC1CCc2c(sc(C(F)(F)F)c2C)C1` (stereo not drawn) [Compound 91, N, 3-dimethyl-2-(trifluoromethyl)-4,5,6,7-tetrahydrobenzothiophen-6-amine hydrochloride], the minimal effective dose is more than 3 mg/kg, the AD result is “ND (^ <4%)”, the AG entry is “ND (^ <4%)” and the AN entry is given as “ND (^ <4%)”. The AP entry is given as “ND (^ <4%)”, the AX entry is “ND (^ <4%)”, the CE entry is reported as “ND (^ <4%)” and the HL entry is listed as “ND (^ <4%)”. Also, the MS entry was “ND (^ <4%)”, the PS entry is recorded as “ND (^ <4%)”, the SH entry is reported as “ND (^ <4%)” and the UK result is “++ (≥24%)”.
Take `CNC1CCc2c(sc(Cl)c2C)C1` (stereo not drawn) [Compound 92, 2-chloro-N, 3-dimethyl-4,5,6,7-tetrahydrobenzothiophen-6-amine hydrochloride]: the minimal effective dose was 3 mg/kg, the AD result was “++++ (≥74%)”, the AG entry is on record as “ND (^ <4%)” and the AN result is given as “ND (^ <4%)”. The AP result was “ND (^ <4%)”, the AX result is given as “ND (^ <4%)”, the CE result is recorded as “ND (^ <4%)” and the HL entry is given as “ND (^ <4%)”. Moreover, the MS entry is given as “ND (^ <4%)”, the PS result was “ND (^ <4%)”, the SH result was “ND (^ <4%)” and the UK entry is “ND (^ <4%)”.
Consider `CNC1CCc2csc(C#N)c2C1` (stereo not drawn) [Compound 93, 6-(methylamino)-4,5,6,7-tetrahydro-2-benzothiophene-1-carbonitrile hydrochloride], for which the minimal effective dose worked out at 0.1 mg/kg, the AD result is recorded as “ND (^ <4%)”, the AG result was “ND (^ <4%)” and the AN result is given as “ND (^ <4%)”. The AP entry is reported as “++++ (≥74%)”, the AX entry is “ND (^ <4%)”, the CE entry is “ND (^ <4%)” and the HL result is “ND (^ <4%)”. The MS entry is “ND (^ <4%)”, the PS result is on record as “ND (^ <4%)”, the SH entry is given as “ND (^ <4%)” and the UK result was “ND (^ <4%)”.
In the case of `CNC1CCc2c(Cl)csc2C1` (stereo not drawn) [Compound 94, 3-chloro-N-methyl-4,5,6,7-tetrahydrobenzothiophen-6-amine hydrochloride], the minimal effective dose amounted to 3 mg/kg, the AD result is “ND (^ <4%)”, the AG entry is on record as “ND (^ <4%)” and the AN result is listed as “ND (^ <4%)”. Also, the AP entry is reported as “++++ (≥74%)”, the AX entry is “ND (^ <4%)”, the CE result was “ND (^ <4%)” and the HL entry is on record as “ND (^ <4%)”. For the same molecule, the MS result is given as “ND (^ <4%)”, the PS entry is listed as “ND (^ <4%)”, the SH result is listed as “ND (^ <4%)” and the UK result is reported as “ND (^ <4%)”.
For the molecule `CNC1CCc2csc(C3CC3)c2C1` (stereo not drawn) [Compound 95, 3-cyclopropyl-N-methyl-4,5,6,7-tetrahydro-2-benzothiophen-5-amine hydrochloride], the minimal effective dose was determined as 1 mg/kg, the AD entry is “+++ (≥49%)”, the AG entry is listed as “ND (^ <4%)” and the AN result was “ND (^ <4%)”. In addition, the AP entry is “++ (≥24%)”, the AX result is on record as “ND (^ <4%)”, the CE result was “ND (^ <4%)” and the HL entry was “ND (^ <4%)”. Also, the MS entry is recorded as “ND (^ <4%)”, the PS result is given as “ND (^ <4%)”, the SH result was “ND (^ <4%)” and the UK result is recorded as “ND (^ <4%)”.
As to `CNC1CCc2cc(Cl)sc2C1` (stereo not drawn) [Compound 96, 2-chloro-N-methyl-4,5,6,7-tetrahydrobenzothiophen-6-amine hydrochloride], the minimal effective dose is 3 mg/kg, the AD result is “ND (^ <4%)”, the AG result is recorded as “ND (^ <4%)” and the AN entry was “ND (^ <4%)”. The AP entry is on record as “+++ (≥49%)”, the AX entry is on record as “ND (^ <4%)”, the CE entry was “ND (^ <4%)” and the HL result is listed as “ND (^ <4%)”. The MS entry is listed as “ND (^ <4%)”, the PS entry is “ND (^ <4%)”, the SH entry was “ND (^ <4%)” and the UK result is “ND (^ <4%)”.
With `CNC1CCc2sc(Cl)cc2C1` (stereo not drawn) [Compound 97, 2-chloro-N-methyl-4,5,6,7-tetrahydrobenzothiophen-5-amine hydrochloride], the minimal effective dose was determined as 1 mg/kg, the AD entry is listed as “++++ (≥74%)”, the AG entry was “ND (^ <4%)” and the AN entry was “ND (^ <4%)”. Further, the AP result was “ND (^ <4%)”, the AX entry is listed as “ND (^ <4%)”, the CE entry is listed as “ND (^ <4%)” and the HL entry is “ND (^ <4%)”. For the same molecule, the MS result is “ND (^ <4%)”, the PS result is recorded as “ND (^ <4%)”, the SH entry is given as “ND (^ <4%)” and the UK result is “ND (^ <4%)”.
Turning to `CNC1CCc2c(F)sc(C)c2C1` (stereo not drawn) [Compound 100, 1-fluoro-N, 3-dimethyl-4,5,6,7-tetrahydro-2-benzothiophen-5-amine hydrochloride], the minimal effective dose is 1 mg/kg, the AD entry is “ND (^ <4%)”, the AG result is on record as “ND (^ <4%)” and the AN result was “ND (^ <4%)”. The AP entry is reported as “++++ (≥74%)”, the AX result is “ND (^ <4%)”, the CE entry is “ND (^ <4%)” and the HL entry is on record as “ND (^ <4%)”. The MS result is “ND (^ <4%)”, the PS entry is “ND (^ <4%)”, the SH result is “ND (^ <4%)” and the UK entry is reported as “ND (^ <4%)”.
For `CNC1CCc2scc(Br)c2C1` (stereo not drawn) [Compound 108, 3-bromo-N-methyl-4,5,6,7-tetrahydrobenzothiophen-5-amine hydrochloride], the minimal effective dose is less than 3 mg/kg, the AD result is listed as “ND (^ <4%)”, the AG result is “ND (^ <4%)” and the AN entry is “ND (^ <4%)”. For the same molecule, the AP entry is “++++ (≥74%)”, the AX entry was “ND (^ <4%)”, the CE result is reported as “ND (^ <4%)” and the HL entry was “ND (^ <4%)”. Besides, the MS entry is “ND (^ <4%)”, the PS entry is reported as “ND (^ <4%)”, the SH entry is given as “ND (^ <4%)” and the UK entry is reported as “ND (^ <4%)”.

A word on the minimal effective dose: it is the smallest amount tested that counted as effective.
